Data on one compound can be found in patent publication US5684032A, “Compounds” (SmithKline Beecham Corporation, priority 1995, dated 1997).

For assay [1], the system named is recombinant human IL-8 type α receptor (IL-8Rα, Type I, non-permissive receptor). The experiment in a line: [125I] IL-8 receptor binding assay, IL-8Rα (Type I, non-permissive) CHO membranes. As to conditions: IL-8Rα (type I) receptor binding assay. The text has this:
(§1) [^125 I] IL-8 (human recombinant) was obtained from Amersham Corp., Arlington Heights, Ill., with specific activity 2000 Ci/mmol. All other chemicals were of analytical grade. High levels of recombinant human IL-8 type α and β receptors were individually expressed in Chinese hamster ovary cells as described previously (Holmes, et al., Science, 1991, 253, 1278). The Chinese hamster ovary membranes were homogenized according to a previously described protocol (Kraft, et al., Nature, 1983, 301, 621). Membrane protein concentration was determined using Pierce Co. micro-assay kit using bovine serum albumin as a standard. All assays were performed in a 96-well micro plate format. Each reaction mixture contained ^125 I IL-8 (0.25 nM), 0.5 μg/mL of IL-8Rα or 1.0 μg/mL of IL-8Rβ membranes in 20 mM Bis-Trispropane and 0.4 mM Tris HCl buffers, pH 8.0, containing 1.2 mM MgSO4, 0.1 mM EDTA, 25 mM NaCl and 0.03% CHAPS plus peptide at relevant concentrations. The assay was initiated by addition of ^125 I-IL-8. After 1 hour at room temperature the plate was harvested using a Tomtec 96-well harvester onto a glass fiber filtermat blocked with 1% polyethyleneimine/0.5% BSA and washed 3 times with 25 mM NaCl, 10 mM TrisHCl, 1 mM MgSO4, 0.5 mM EDTA, 0.03% CHAPS, pH 7.4. The filter was then dried and counted on the Betaplate liquid scintillation counter. […]

In assay [2] the test system is recombinant human IL-8 type β receptor (IL-8Rβ, Type II, permissive receptor). The experiment in a line: [125I] IL-8 receptor binding assay, IL-8Rβ (Type II, permissive) CHO membranes. As to conditions: IL-8Rβ (type II) receptor binding assay.
Description: as §1

Take `O=C(O)c1c(-c2ccccc2)c2ccccc2n1Cc1ccc(OC(F)(F)F)cc1`: the “inhibition of IL-8 binding, result in words” value in assay [1] and in assay [2] was “not active” throughout.
